According to patent US6737383B1, “Herbicidal oxadiazolidines” (priority 1999, dated 2004):

Tests used:
bamyardgrass = assay: Test B flood test barnyardgrass; format: in vivo, Echinochloa crus-galli
In short: (§1)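 Each value is a visual injury score relative to controls, with 10 meaning complete control and 0 no effect. Evaluation took place twelve to sixteen days after the 2-leaf-stage plants were treated and kept in the greenhouse.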

blackgrass = assay: Test B pre/postemergence blackgrass; format: in vivo, Alopecurus myosuroides
In short: (§2)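 Response is a visual 0-to-10 score relative to untreated plants, where 0 means no effect and 10 means complete control, taken twelve to sixteen days after application. Treatments went onto soil at planting and onto foliage of 1- to 4-leaf plants, using a surfactant-containing non-phytotoxic solvent.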

rice = assay: Test B flood test rice; format: in vivo, Oryza sativa
In short: as §1

wild oat = assay: Test B pre/postemergence wild oat; format: in vivo, Avena fatua; conditions: for Plant response rating, Wild oats: Rate 250 g/ha
In short: as §2

smallflower flatsedge = assay: Test B flood test smallflower flatsedge; format: in vivo, Cyperus difformis
In short: as §1

surinam grass = assay: Test B pre/postemergence surinam grass; format: in vivo, Brachiaria decumbens
In short: as §2

corn = assay: Test B pre/postemergence corn; format: in vivo, Zea mays
In short: as §2

sugar beet = assay: Test B pre/postemergence sugar beet; format: in vivo, Beta vulgaris; conditions: for Plant response rating, Sugarbeets: Rate 250 g/ha
In short: as §2

rape = assay: Test B pre/postemergence rape; format: in vivo, Brassica napus
In short: as §2

bedstraw = assay: Test B pre/postemergence bedstraw; format: in vivo, Galium aparine
In short: as §2

purple nutsedge = assay: Test B pre/postemergence purple nutsedge; format: in vivo, Cyperus rotundus
In short: as §2

crabgrass = assay: Test B pre/postemergence crabgrass; format: in vivo, Digitaria sanguinalis
In short: as §2

wheat = assay: Test B pre/postemergence wheat; format: in vivo, Triticum aestivum; conditions: for Plant response rating, Wheat: Rate 250 g/ha
In short: as §2

soybean = assay: Test B pre/postemergence soybean; format: in vivo, Glycine max
In short: as §2

cocklebur = assay: Test B pre/postemergence cocklebur; format: in vivo, Xanthium strumarium
In short: as §2

velvetleaf = assay: Test B pre/postemergence velvetleaf; format: in vivo, Abutilon theophrasti; conditions: for Plant response rating, Velvetleaf: Rate 250 g/ha
In short: as §2

duck salad = assay: Test B flood test duck salad; format: in vivo, Heteranthera limosa
In short: as §1

[1] = Postemergence, Rate 62 g/ha, scale 0 to 10, 0 is no effect, 10 is complete control
[2] = Rate 500 g/ha, listed under Postemergence (flood test species), scale 0 to 10, 0 no effect, 10 complete control
[3] = flood test, listed under Postemergence, Rate 250 g/ha, scale 0 to 10, 0 no effect, 10 complete control
[4] = Postemergence, Rate 125 g/ha, scale of 0 to 10 where 0 is no effect and 10 is complete control
[5] = Postemergence, Rate 250 g/ha, scale 0 to 10, 0 no effect, 10 complete control
[6] = Preemergence, Rate 62 g/ha, scale 0 to 10 (0 no effect, 10 complete control)
[7] = Preemergence, Rate 125 g/ha, scale 0 to 10 (0 no effect, 10 complete control)
[8] = Preemergence, Rate 250 g/ha, scale of 0 to 10 where 0 is no effect and 10 is complete control
[9] = Preemergence, Rate 500 g/ha, scale 0 (no effect) to 10 (complete control)
[10] = Rate 500 g/ha, Postemergence, scale 0 to 10, 0 no effect, 10 complete control
[11] = Postemergence (flood test species), Rate 125 g/ha, scale of 0 to 10 where 0 is no effect and 10 is complete control
[12] = Rate 250 g/ha, Postemergence (flood test), scale 0 to 10, 0 is no effect, 10 is complete control
[13] = Preemergence, Rate 125 g/ha, 0 is no effect, 10 is complete control
[14] = Preemergence, scale of 0 to 10 where 0 is no effect and 10 is complete control
[15] = Postemergence, scale 0 to 10, 0 is no effect, 10 is complete control
[16] = Rate 125 g/ha, Postemergence, scale 0 to 10, 0 no effect, 10 complete control

Cc1nn(C)c(Cl)c1-n1c(=O)on(C(=O)N(c2ccc(F)cc2)C(C)C)c1=O [Compound 95]
Barnyardgrass plant response rating (bamyardgrass; [1]): 0 | Barnyardgrass plant response rating (bamyardgrass; Rate 125 g/ha, Postemergence section (flood test species), scale 0 to 10, 0 no effect, 10 complete control): 0 | Barnyardgrass plant response rating (bamyardgrass; [2]): 4 | Barnyardgrass plant response rating (bamyardgrass; [3]): 0 | Blackgrass plant response rating (blackgrass; [1]): 0 | Blackgrass plant response rating (blackgrass; [4]): 0 | Blackgrass plant response rating (blackgrass; [5]): 4 | Blackgrass plant response rating (blackgrass; [6]): 0 | Plant response rating, Blackgrass (blackgrass; [7]): 2 | Plant response rating, Blackgrass (blackgrass; [8]): 4 | Blackgrass plant response rating (blackgrass; [9]): 6 | Blackgrass plant response rating (blackgrass; [10]): 5 | Rice plant response rating (rice; [11]): 0 | Rice plant response rating (rice; [1]): 0 | Plant response rating, Rice (rice; [12]): 2 | Rice plant response rating (rice; [2]): 4 | Wild oats plant response rating (wild oat; [1]): 0 | Wild oats plant response rating (wild oat; [4]): 0 | Wild oats plant response rating (wild oat; [6]): 0 | Wild oats plant response rating (0 to 10 scale) (wild oat; [13]): 0 | Plant response rating, Wild oats (wild oat; [14]): 2 | Wild oats plant response rating (wild oat; [9]): 5 | Plant response rating, Wild oats (wild oat; [15]): 0 | Wild oats plant response rating (wild oat; [10]): 3 | S. Flatsedge plant response rating (smallflower flatsedge; [11]): 0 | S. Flatsedge plant response rating (smallflower flatsedge; [1]): 0 | Plant response rating, S. Flatsedge (smallflower flatsedge; [12]): 0 | S. Flatsedge plant response rating (smallflower flatsedge; [2]): 5 | B. signalgrass plant response rating (surinam grass; [1]): 0 | B. signalgrass plant response rating (surinam grass; [5]): 3 | B. signalgrass plant response rating (surinam grass; [6]): 0 | Plant response rating, B. signalgrass (surinam grass; [7]): 0 | Plant response rating, B. signalgrass (surinam grass; [8]): 3 | B. signalgrass plant response rating (surinam grass; [9]): 7 | B. signalgrass plant response rating (surinam grass; [16]): 0 | B. signalgrass plant response rating (surinam grass; Rate 500 g/ha, Postemergence, scale of 0 to 10 where 0 is no effect and 10 is complete control): 5 | Corn plant response rating (corn; [1]): 0 | Corn plant response rating (corn; [4]): 0 | Corn plant response rating (corn; [5]): 0 | Corn plant response rating (corn; [6]): 0 | Plant response rating, Corn (corn; [7]): 0 | Plant response rating, Corn (corn; [8]): 0 | Corn plant response rating (corn; [9]): 0 | Corn plant response rating (corn; [10]): 0 | Sugarbeets plant response rating (sugar beet; [1]): 2 | Sugarbeets plant response rating (sugar beet; [4]): 2 | Sugarbeets plant response rating (sugar beet; [6]): 0 | Sugarbeets plant response rating (0 to 10 scale) (sugar beet; [13]): 1 | Plant response rating, Sugarbeets (sugar beet; [14]): 2 | Sugarbeets plant response rating (sugar beet; [9]): 3 | Plant response rating, Sugarbeets (sugar beet; [15]): 4 | Sugarbeets plant response rating (sugar beet; [10]): 4 | Rape plant response rating (rape; [1]): 0 | Rape plant response rating (rape; [4]): 0 | Rape plant response rating (rape; [5]): 0 | Rape plant response rating (rape; [6]): 0 | Plant response rating, Rape (rape; [7]): 0 | Plant response rating, Rape (rape; [8]): 3 | Rape plant response rating (rape; [9]): 3 | Rape plant response rating (rape; [10]): 0 | Bedstraw plant response rating (bedstraw; [1]): 0 | Bedstraw plant response rating (bedstraw; [5]): 0 | Bedstraw plant response rating (bedstraw; [6]): 0 | Plant response rating, Bedstraw (bedstraw; [7]): 0 | Plant response rating, Bedstraw (bedstraw; [8]): 0 | Bedstraw plant response rating (bedstraw; [9]): 0 | Bedstraw plant response rating (bedstraw; [16]): 0 | Bedstraw plant response rating (bedstraw; [10]): 2 | Nutsedge plant response rating (purple nutsedge; [1]): 0 | Nutsedge plant response rating (purple nutsedge; [4]): 0 | Nutsedge plant response rating (purple nutsedge; [5]): 0 | Nutsedge plant response rating (purple nutsedge; [6]): 0 | Plant response rating, Nutsedge (purple nutsedge; [7]): 0 | Plant response rating, Nutsedge (purple nutsedge; [8]): 0 | Nutsedge plant response rating (purple nutsedge; [9]): 0 | Nutsedge plant response rating (purple nutsedge; [10]): 0 | Crabgrass plant response rating (crabgrass; [1]): 0 | Crabgrass plant response rating (crabgrass; [4]): 0 | Crabgrass plant response rating (crabgrass; [5]): 6 | Crabgrass plant response rating (crabgrass; [6]): 2 | Plant response rating, Crabgrass (crabgrass; [7]): 6 | Plant response rating, Crabgrass (crabgrass; [8]): 8 | Crabgrass plant response rating (crabgrass; [9]): 8 | Crabgrass plant response rating (crabgrass; [10]): 8 | Wheat plant response rating (wheat; [1]): 0 | Wheat plant response rating (wheat; [4]): 0 | Wheat plant response rating (wheat; [6]): 0 | Wheat plant response rating (0 to 10 scale) (wheat; [13]): 0 | Plant response rating, Wheat (wheat; [14]): 0 | Wheat plant response rating (wheat; [9]): 0 | Plant response rating, Wheat (wheat; [15]): 0 | Wheat plant response rating (wheat; [10]): 0 | Soybean plant response rating (soybean; [1]): 1 | Soybean plant response rating (soybean; [4]): 1 | Soybean plant response rating (soybean; [6]): 0 | Plant response rating, Soybean (soybean; [7]): 0 | Plant response rating, Soybean (soybean; [8]): 0 | Soybean plant response rating (soybean; [9]): 0 | Plant response rating, Soybean (soybean; Rate 250 g/ha, Postemergence, scale 0 to 10, 0 is no effect, 10 is complete control): 1 | Soybean plant response rating (soybean; [10]): 1 | Cocklebur plant response rating (cocklebur; [1]): 0 | Cocklebur plant response rating (cocklebur; [4]): 0 | Cocklebur plant response rating (cocklebur; [5]): 1 | Cocklebur plant response rating (cocklebur; [6]): 0 | Plant response rating, Cocklebur (cocklebur; [7]): 0 | Plant response rating, Cocklebur (cocklebur; [8]): 0 | Cocklebur plant response rating (cocklebur; [9]): 0 | Cocklebur plant response rating (cocklebur; [10]): 2 | Velvetleaf plant response rating (velvetleaf; [1]): 0 | Velvetleaf plant response rating (velvetleaf; [4]): 0 | Velvetleaf plant response rating (velvetleaf; [6]): 0 | Velvetleaf plant response rating (0 to 10 scale) (velvetleaf; [13]): 0 | Plant response rating, Velvetleaf (velvetleaf; [14]): 0 | Velvetleaf plant response rating (velvetleaf; [9]): 0 | Plant response rating, Velvetleaf (velvetleaf; [15]): 0 | Velvetleaf plant response rating (velvetleaf; [10]): 0 | Ducksalad plant response rating (duck salad; [11]): 0 | Ducksalad plant response rating (duck salad; [1]): 0 | Ducksalad plant response rating (duck salad; [2]): 0 | Ducksalad plant response rating (duck salad; [3]): 0
